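Test compounds were applied to cells in 96-well plates for 48 hours at 5 doses. TGI: total growth inhibition.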
Experiments:
Experiment in all cases: growth of human tumour cells (NCI), 48 h
NCI-H23 lung = system: NCI-H23 lung
NCI-H226 lung = system: NCI-H226 lung
UACC-62 melanoma = system: UACC-62 melanoma
U251 CNS = system: U251 CNS
OVCAR-8 ovarian = system: OVCAR-8 ovarian
HCC-2998 colon = system: HCC-2998 colon
SF-295 CNS = system: SF-295 CNS
EKVX NSCLC = system: EKVX NSCLC
M19-MEL melanoma = system: M19-MEL melanoma
LOX IMVI melanoma = system: LOX IMVI melanoma

O=C(OC[C@H]1O[C@@H](OC(=O)c2cc(O)c(O)c(O)c2)[C@H](OC(=O)c2cc(O)c(O)c(O)c2)[C@@H](OC(=O)c2cc(O)c(O)c(O)c2)[C@@H]1OC(=O)c1cc(O)c(O)c(O)c1)c1cc(O)c(O)c(O)c1
TGI (NCI-H23 lung): 7.71 µM
TGI (NCI-H226 lung): 7.98 µM
TGI (UACC-62 melanoma): 6.44 µM
TGI (U251 CNS): 54.3 µM
TGI (OVCAR-8 ovarian): 24.9 µM
TGI (HCC-2998 colon): 12.3 µM
TGI (SF-295 CNS): 20.3 µM
TGI (EKVX NSCLC): 70.9 µM
TGI (M19-MEL melanoma): 83.2 µM
TGI (LOX IMVI melanoma): 4.41 µM

CN1C(=O)C(Cl)(C(Cl)(Cl)S(=O)(=O)O)C(=O)c2ccccc21 (stereo not given)
TGI (NCI-H23 lung): > 100 µM
TGI (NCI-H226 lung): > 100 µM
TGI (UACC-62 melanoma): > 100 µM
TGI (U251 CNS): > 100 µM
TGI (OVCAR-8 ovarian): > 100 µM
TGI (HCC-2998 colon): > 100 µM
TGI (SF-295 CNS): > 100 µM
TGI (EKVX NSCLC): > 100 µM
TGI (M19-MEL melanoma): > 100 µM
TGI (LOX IMVI melanoma): > 100 µM

CCOC(=O)c1cc(/C=C/C(C)=C/C(=O)OC)n(C)c1C
TGI (NCI-H23 lung): > 100 µM
TGI (NCI-H226 lung): > 100 µM
TGI (UACC-62 melanoma): > 100 µM
TGI (U251 CNS): > 100 µM
TGI (OVCAR-8 ovarian): > 100 µM
TGI (HCC-2998 colon): > 100 µM
TGI (SF-295 CNS): > 100 µM
TGI (EKVX NSCLC): > 100 µM
TGI (M19-MEL melanoma): > 100 µM
TGI (LOX IMVI melanoma): > 100 µM

CN=C1SC(=Nc2ccc(N(C)C)cc2)N1C
TGI (NCI-H23 lung): > 100 µM
TGI (NCI-H226 lung): > 100 µM
TGI (UACC-62 melanoma): > 100 µM
TGI (U251 CNS): > 100 µM
TGI (OVCAR-8 ovarian): > 100 µM
TGI (HCC-2998 colon): > 100 µM
TGI (SF-295 CNS): > 100 µM
TGI (EKVX NSCLC): 72.7 µM
TGI (M19-MEL melanoma): > 100 µM
TGI (LOX IMVI melanoma): > 100 µM

CCOc1ccccc1NC(=O)CCc1nc(=S)[nH][nH]1
TGI (NCI-H23 lung): > 100 µM
TGI (NCI-H226 lung): > 100 µM
TGI (UACC-62 melanoma): > 100 µM
TGI (U251 CNS): > 100 µM
TGI (OVCAR-8 ovarian): > 100 µM
TGI (HCC-2998 colon): > 100 µM
TGI (SF-295 CNS): > 100 µM
TGI (EKVX NSCLC): > 100 µM
TGI (M19-MEL melanoma): > 100 µM
TGI (LOX IMVI melanoma): > 100 µM

COC(=O)c1c(-c2ccccc2)sc(-c2cccc3ccccc23)c1C(=O)OC
TGI (NCI-H23 lung): > 100 µM
TGI (NCI-H226 lung): > 100 µM
TGI (UACC-62 melanoma): > 100 µM
TGI (U251 CNS): > 100 µM
TGI (OVCAR-8 ovarian): > 100 µM
TGI (HCC-2998 colon): > 100 µM
TGI (SF-295 CNS): > 100 µM
TGI (EKVX NSCLC): > 100 µM
TGI (M19-MEL melanoma): > 100 µM
TGI (LOX IMVI melanoma): > 100 µM

CCN(CC)c1ccc2c(c1)Nc1cc(=C(C#N)C#N)c3ccccc3c1=N2
TGI (NCI-H23 lung): > 100 µM
TGI (NCI-H226 lung): > 100 µM
TGI (UACC-62 melanoma): > 100 µM
TGI (U251 CNS): > 100 µM
TGI (OVCAR-8 ovarian): > 100 µM
TGI (HCC-2998 colon): > 100 µM
TGI (SF-295 CNS): > 100 µM
TGI (EKVX NSCLC): > 100 µM
TGI (M19-MEL melanoma): > 100 µM
TGI (LOX IMVI melanoma): > 100 µM

C=C1C(=O)OC2/C=C(\C=O)CC/C=C(\C)C(O)C[C@@H]12 (stereo not given in full)
TGI (NCI-H23 lung): 17.7 µM
TGI (NCI-H226 lung): 43.9 µM
TGI (UACC-62 melanoma): 18.5 µM
TGI (U251 CNS): 35.4 µM
TGI (OVCAR-8 ovarian): 12 µM
TGI (HCC-2998 colon): 31.7 µM
TGI (SF-295 CNS): 28.3 µM
TGI (EKVX NSCLC): 29.1 µM
TGI (M19-MEL melanoma): 19.2 µM
TGI (LOX IMVI melanoma): 18.5 µM

Cc1c2cc[n+](C)cc2c(C)c2c1[nH]c1ccc(O)c(OCC(F)(F)F)c12
TGI (NCI-H23 lung): 5.48 µM
TGI (NCI-H226 lung): 4.08 µM
TGI (UACC-62 melanoma): 25.2 µM
TGI (U251 CNS): 7 µM
TGI (OVCAR-8 ovarian): 25.5 µM
TGI (HCC-2998 colon): 46.4 µM
TGI (SF-295 CNS): 3.76 µM
TGI (EKVX NSCLC): 20.1 µM
TGI (M19-MEL melanoma): 11.8 µM
TGI (LOX IMVI melanoma): 46.5 µM

From PubChem BioAssay (NCI)
